Results reported in patent US11090364B2, “Conjugates of a pharmaceutical agent and a moiety capable of binding to a glucose sensing protein” (SANOFI, priority 2016, dated 2021).

test system: HepG2 cells; test: HepG2 assay: 14C 2-deoxy-D-glucose transport into HepG2 cells; format: cell-based; conditions: Homo sapiens, test compound 100 μM
Procedure: For measurement of ^14C 2-deoxy-D-glucose transport into HepG2 cells, cells were seeded in collagen treated 96-well plates (Cytostar-T Plates Perkin Elmer, 40.000 cells/200 μ/well) in medium complete (MEM W/GLUT-I, EARLES (Gibco #41090) /NEAA/PS/10% FCS) and grown for 48 hours. After starvation for 2 hours with MEM W/GLUT-I, EARLES (Gibco #41090)/NEAA/no serum 100 μl/well and washing twice with 200 μL KRB buffer, cells were stimulated in a dose dependent manner by adding 20 μL of test compound dilution 0-750 μM (7.5 times higher concentration than final) or 20 μL of 188 μM Cytochalasin B solution as negative control, to 80 μL KRB buffer and incubated for 30 minutes. After compound stimulation, the transport of ^14C 2-deoxy-D-glucose was started by adding of 50 μL ^14C 2-deoxy-D-glucose solution (250 μM 2-deoxy-D-glucose cold and 15 μM ^14C 2-deoxy-D-glucose 0.13 μCi/well) for 20 minutes. Transport was stopped by adding 50 μL/well 40 μM Cytochalasin B solution. Plates were measured in a 96-well Wallac Microbeta device. The cpm (counts per minute) values were used to determine the % inhibition values for the test compounds within each experiment, which then are averaged over the number of experiments performed.

Structure (SMILES) | inhibition at 100 µM [%]
CC(=O)O[C@@H]1OC(CN2CCN(Cc3ccc4c(c3)OCO4)CC2)=C[C@H](OC(C)=O)[C@H]1OC(C)=O [Example 47, [(2S,3R,4S)-2,3-Diacetoxy-6-[[4-(1,3-benzodioxol-5-ylmethyl)piperazin-1-yl]methyl]-3,4-dihydro-2H-pyran-4-yl] acetate] | 13.8
O=C([C@H]1OC(O)[C@H](O)[C@@H](O)[C@@H]1O)N1CCN(c2ccc(Br)cc2)CC1 (stereo partly drawn) [Example 36, [4-(4-Bromophenyl)piperazin-1-yl]-[(2S,3S,4S,5R)-3,4,5,6-tetrahydroxytetrahydropyran-2-yl]methanone] | 20.6
OC1O[C@H](Cn2cc(-c3ccccc3)nn2)[C@@H](O)[C@H](O)[C@H]1O (stereo partly drawn) [Example 69, (3R,4S,5S,6R)-6-[(4-Phenyltriazol-1-yl)methyl]tetrahydropyran-2,3,4,5-tetrol] | 6.14
CN(Cc1ccccc1)Cc1cn([C@H]2C(O)O[C@H](CO)[C@@H](O)[C@@H]2O)nn1 (stereo partly drawn) [Example 59, (3R,4R,5S,6R)-3-[4-[[Benzyl(methyl)amino]methyl]triazol-1-yl]-6-(hydroxymethyl)tetrahydropyran-2,4,5-triol] | 7.56
O=[N+]([O-])c1ccc(NCc2cn([C@@H]3O[C@H](CO)[C@@H](O)[C@H](O)[C@H]3O)nn2)c2nonc12 [Example 88, (2R,3S,4S,5R,6R)-2-(Hydroxymethyl)-6-[4-[[(4-nitro-2,1,3-benzoxadiazol-7-yl)amino]methyl]triazol-1-yl]tetrahydropyran-3,4,5-triol] | 31.4
COc1ccccc1N1CCN(C(=O)[C@H]2O[C@@H](OC(C)=O)[C@H](OC(C)=O)[C@@H](OC(C)=O)[C@@H]2OC(C)=O)CC1 [Example 19, [(2S,3R,4S,5S,6S)-2,3,5-Triacetoxy-6-[4-(2-methoxyphenyl)piperazine-1-carbonyl]tetrahydropyran-4-yl] acetate] | 6.89
CN(C)c1cccc2c(S(=O)(=O)NCc3cn([C@H]4C(O)O[C@H](CO)[C@@H](O)[C@@H]4O)nn3)cccc12 (stereo partly drawn) [Example 54, 5-(Dimethylamino)-N-[[1-[(3R,4R,5S,6R)-2,4,5-trihydroxy-6-(hydroxymethyl)tetrahydropyran-3-yl]triazol-4-yl]methyl]naphthalene-1-sulfonamide] | 10.5
OC[C@H]1OC(O)[C@H](n2cc(CCCc3ccccc3)nn2)[C@@H](O)[C@@H]1O (stereo partly drawn) [Example 57, (3R,4R,5S,6R)-6-(Hydroxymethyl)-3-[4-(3-phenylpropyl)triazol-1-yl]tetrahydropyran-2,4,5-triol] | 24.1
CC(=O)O[C@@H]1O[C@H](C(=O)N2CCN(C)CC2)[C@@H](OC(C)=O)[C@H](OC(C)=O)[C@H]1OC(C)=O [Example 1, [(2S,3R,4S,5S,6S)-2,3,5-Triacetoxy-6-(4-methylpiperazine-1-carbonyl)tetrahydropyran-4-yl] acetate] | 6.32
CC(=O)O[C@@H]1OC(CN2CCN(c3ccccc3)CC2)=C[C@H](OC(C)=O)[C@H]1OC(C)=O [Example 45, [(2S,3R,4S)-2,3-Diacetoxy-6-[(4-phenylpiperazin-1-yl)methyl]-3,4-dihydro-2H-pyran-4-yl] acetate] | 29.3
CC(=O)O[C@@H]1O[C@H](C(=O)N2CCN(c3ccc(Cl)cc3)CC2)[C@@H](OC(C)=O)[C@H](OC(C)=O)[C@H]1OC(C)=O [Example 14, [(2S,3R,4S,5S,6S)-2,3,5-Triacetoxy-6-[4-(4-chlorophenyl)piperazine-1-carbonyl]tetrahydropyran-4-yl] acetate] | 5.67
O=[N+]([O-])c1ccc(NCCCCCCc2cn([C@@H]3O[C@H](CO)[C@@H](O)[C@H](O)[C@H]3O)nn2)c2nonc12 [Example 92, (2R,3S,4S,5R,6R)-2-(Hydroxymethyl)-6-[4-[6-[(4-nitro-2,1,3-benzoxadiazol-7-yl)amino]hexyl]triazol-1-yl]tetrahydropyran-3,4,5-triol] | 23.1
C=CCN1CCN(C(=O)[C@H]2O[C@@H](OC(C)=O)[C@H](OC(C)=O)[C@@H](OC(C)=O)[C@@H]2OC(C)=O)CC1 [Example 8, [(2S,3R,4S,5S,6S)-2,3,5-Triacetoxy-6-(4-allylpiperazine-1-carbonyl)tetrahydropyran-4-yl] acetate] | 7.67
CC(=O)O[C@@H]1OC(CN2CCN(c3ccccc3Cl)CC2)=C[C@H](OC(C)=O)[C@H]1OC(C)=O [Example 49, [(2S,3R,4S)-2,3-Diacetoxy-6-[[4-(2-chlorophenyl)piperazin-1-yl]methyl]-3,4-dihydro-2H-pyran-4-yl] acetate] | 19.9
CCN1CCN(C(=O)[C@H]2OC(O)[C@H](O)[C@@H](O)[C@@H]2O)CC1 (stereo partly drawn) [Example 22, (4-Ethylpiperazin-1-yl)-[(2S,3S,4S,5R)-3,4,5,6-tetrahydroxytetrahydropyran-2-yl]methanone] | 11.4
CN1CCN(C(=O)[C@H]2OC(O)[C@H](O)[C@@H](O)[C@@H]2O)CC1 (stereo partly drawn) [Example 21, (4-Methylpiperazin-1-yl)-[(2S,3S,4S,5R)-3,4,5,6-tetrahydroxytetrahydropyran-2-yl]methanone] | 7.53
O=C([C@H]1OC(O)[C@H](O)[C@@H](O)[C@@H]1O)N1CCN(C2CCCCC2)CC1 (stereo partly drawn) [Example 29, (4-Cyclohexylpiperazin-1-yl)-[(2S,3S,4S,5R)-3,4,5,6-tetrahydroxytetrahydropyran-2-yl]methanone] | 18.4
CC(=O)O[C@@H]1OC(CN2CCN(C/C=C/c3ccccc3)CC2)=C[C@H](OC(C)=O)[C@H]1OC(C)=O [Example 46, [(2S,3R,4S)-2,3-Diacetoxy-6-[[4-[(E)-cinnamyl]piperazin-1-yl]methyl]-3,4-dihydro-2H-pyran-4-yl] acetate] | 8.76
CC(C)(C)N1CCN(C(=O)[C@H]2OC(O)[C@H](O)[C@@H](O)[C@@H]2O)CC1 (stereo partly drawn) [Example 27, (4-tert-Butylpiperazin-1-yl)-[(2S,3S,4S,5R)-3,4,5,6-tetrahydroxytetrahydropyran-2-yl]methanone] | 13.1
COC(=O)c1ccc(-c2cn([C@H]3C(O)O[C@H](CO)[C@@H](O)[C@@H]3O)nn2)cc1 (stereo partly drawn) [Example 58, Methyl 4-[1-[(3R,4R,5S,6R)-2,4,5-trihydroxy-6-(hydroxymethyl)tetrahydropyran-3-yl]triazol-4-yl]benzoate] | 20
CC(=O)O[C@@H]1O[C@H](C(=O)N2CCN(C(C)(C)C)CC2)[C@@H](OC(C)=O)[C@H](OC(C)=O)[C@H]1OC(C)=O [Example 7, [(2S,3R,4S,5S,6S)-2,3,5-Triacetoxy-6-(4-tert-butylpiperazine-1-carbonyl)tetrahydropyran-4-yl] acetate] | 6.99
O=C([C@H]1OC(O)[C@H](O)[C@@H](O)[C@@H]1O)N1CCN(Cc2ccc3c(c2)OCO3)CC1 (stereo partly drawn) [Example 40, [4-(1,3-Benzodioxol-5-ylmethyl)piperazin-1-yl]-[(2S,3S,4S,5R)-3,4,5,6-tetrahydroxytetrahydropyran-2-yl]methanone] | 10.1
